Reference: a melting point compilation (Tetko et al.; mined from patent text by program, amines drawn as free bases though some values may be those of a salt)

| Compound | melting point [°C] |
| --- | --- |
| CCn1c(=O)c2[nH]c(/C=C/c3ccc(OC)c(C)c3OC)nc2n(CC)c1=O | > 275 |
| CCOC(=O)c1cccc(-c2cc3c(O)ncnc3[nH]2)c1 | > 250 |
| CC(COc1ccc(O)c(C(N)=O)c1)NCc1ccccc1 (stereo not drawn) | 102 to 104 |
| Cc1ccc(S(=O)(=O)ON=C2CCCc3occ(C(=O)O)c32)cc1 | 155 to 165 |
| O=P(NP(=S)(Oc1ccccc1)Oc1ccccc1)(Oc1ccccc1)Oc1ccccc1 | 103 to 105 |
| CCn1c(=O)c2c(nc(/C=C/c3ccc(O)c(C)c3C)n2C)n(CC)c1=O | 240 to 242 |
| CC(c1cccnc1)c1c[nH]c(=S)[nH]c1=O (stereo not drawn) | 225 to 228 |
| COc1ccc(-c2ccc3cc(C(=O)O)ccc3c2)cc1C12CC3CC(CC(C3)C1)C2 | 321 |
| Nc1ncc(S(=O)c2cccnc2)s1 (stereo not drawn) | 178 to 179 |
| C[C@@H]1C(=O)C[C@H]2C[C@@H]1OO[C@@]2(C)/C=C\c1ccc(C(C)(C)C)cc1 | 101 |
| CCCCCOc1ccc(-c2cnc(C#N)nc2)cc1 | 100 |
| CSc1ccc(-c2n[nH]c(C(F)(F)F)c2-c2ccc(F)cc2)cc1 | 189 to 190 |
| COc1cc(C(O)C#N)ccc1O (stereo not drawn) | 80 to 81 |
| O=C(CCCCC(=O)Oc1ccc(NC(=O)c2ccccc2)cc1)CC1CC(O)CC1=O (stereo not drawn) | 143 to 146 |
| Cc1ccc(-c2occc2C#N)cc1 | 66 |
| COc1ccc(CS(=O)(=O)c2ccc(S(N)(=O)=O)s2)cc1 | 198 to 203 |
| Cc1nnc2n1-c1ccc(I)cc1C(c1ccccc1F)=NC2C (stereo not drawn) | 142 to 145 |
| CC(C)c1nc(CCOC2=CCCc3ccccc32)n(C)c1Sc1cc(Cl)cc(Cl)c1 | 99 to 102 |
| CCOc1ccc(-c2nc(CCC(=O)c3ccccc3OC)cs2)cc1OCC | 68.9 to 69.3 |
| O=[N+]([O-])C=C(NCc1ccc(Cl)nc1)NCc1ccc(Cl)nc1 | 238 to 240 |
| COC(=O)C(CC(=O)c1cc(Cl)c(C)c(Cl)c1)OC (stereo not drawn) | 75 to 78 |
| Oc1ccc2c(c1)OCC(c1ccc(F)cc1)C2c1ccc(OCCCN2CCCCC2)cc1 (stereo not drawn) | 78 to 84 |
| COc1cc2cc(-c3cccnc3)cnc2cc1OC | 131 to 132 |
| Cc1cccc(OC2CCOC2=O)c1[N+](=O)[O-] (stereo not drawn) | 82 to 84 |

| Compound | melting point [°C] |
| --- | --- |
| CCn1nc(-c2nc(C#N)c(C#N)nc2-c2ccccc2)ccc1=O | 201 to 203 |
| C=Cc1cc2cccnc2c(-c2cccc([N+](=O)[O-])c2)n1 | 145 to 151 |
| CCNC(=O)c1ccc(N2CCNCC2)c(F)c1 | 142 to 145 |
| CC1=CCC2(C)C(CCC3C4CCC(=O)C4(C)CCC32)C1 (stereo not drawn) | 124 to 126 |
| Cc1sc(CCc2ccc(CO)cc2)nc1-c1ccccc1 | 62 to 63 |
| CCNC1(C(N)=O)C=C2C(=Nc3ccccc32)C=N1 (stereo not drawn) | 233 to 236 |
| CCOc1ccc(-c2nc3c4ccccc4ccc3n2C)cc1 | 138 to 139 |
| COC(=O)C(C)Oc1ccc(Oc2cnc3ccccc3n2)cc1 (stereo not drawn) | 110 to 115 |
| CCCCCCCCCCCC(=O)N1CCN(CCO)CC1 | 38 to 40 |
| C=CCOCc1[nH]c(=O)c(CC(C)C)[n+]([O-])c1N | 149 to 151 |
| Nc1cc(OCc2ccccc2)cc(OCc2ccccc2)c1 | 77 to 80 |
| O=C(c1ccc(F)cc1)N1CCC[C@H](c2nc(-c3ccncc3)no2)C1 | 113 to 115 |
| Cc1cccc(C2CCN(C(=O)CCC(=O)c3ccc4c(c3)CCNCC4)CC2)c1 | 91 to 93 |
| COC(=O)c1cc(S(C)(=O)=O)c(Br)cc1C | 150 |
| O=[N+]([O-])c1ccc(SSc2nc3ccccc3s2)c(C(Cl)(Cl)Cl)c1 | 97 |
| Cc1cc(NC(=O)C(C)(C)C)n(C)n1 | 86 to 88 |
| O=C=NC(=O)CS(=O)(=O)c1ccc(Cl)cc1 | 58 to 60 |
| Cc1nc(-c2ccccc2)nc(-c2cccc([N+](=O)[O-])c2)c1CN | 145 to 147 |
| CC(C)(C)CC(=O)NN1C(=O)C(NC(=O)Nc2cccc(N)c2)CC(c2ccccc2)CC1c1ccccc1 (stereo not drawn) | 195 to 205 |
| CCCOc1ccccc1N1CCN(CCCCn2c(=O)[nH]c(=O)c3ccccc32)CC1 | 68 |
| CC1(Br)CCc2cc3c(cc2C1=O)CCO3 (stereo not drawn) | 95 to 98 |
| O=C1CSC(=S)N1N=c1sc2ccccc2s1 | 295 to 300 |
| CC(C#N)=NC(C#N)=C(N)C#N | 220 to 221 |
| Cc1cc(Oc2ncc(C(F)(F)F)cc2Cl)nn1C(N)=O | 101 to 104 |

| Compound | melting point [°C] |
| --- | --- |
| CCCC(=NOCC)C1=C(O)CC(c2cc(C3CCOC3)no2)CC1=O (stereo not drawn) | 85 |
| Cc1c(C)c(C)c(S(=O)(=O)NC(Cc2nc3ccc(C=CCNC4=NCCN4)cc3c(=O)[nH]2)C(=O)O)c(C)c1C (stereo not drawn) | 131 to 135 |
| Cc1cc2c(c(C(=O)c3ccccc3)c1)NCC2 | 84 |
| CCOC(=O)c1cnn(-c2ccc(OC(F)(F)F)cc2)c1N | 102 to 103 |
| COc1ccc(-c2[nH]nc3c2C(=O)c2c(NC(=O)CNCCO)cccc2-3)cc1 | 243 |
| O=C(O)CC1c2ccccc2COc2ccccc21 (stereo not drawn) | 114 to 115 |
| O=C(Nc1cccc(C(F)(F)F)c1)c1cccc2cc(O)ccc12 | 201 to 202 |
| O=C1Nc2ccccc2C12CCC2 | 140 to 145 |
| O=C(OCc1ccccc1)N1CCN2c3ccc([N+](=O)[O-])cc3OCC2C1 (stereo not drawn) | 138 to 140 |
| CCCCc1ccc(C2(O)CN3CCC2CC3)o1 (stereo not drawn) | 94 to 96 |
| CC(C)=NNc1nc(C(Cl)(Cl)Cl)ns1 | 66 |
| O=C(O)c1cc2cc(Cl)ccc2nc1N[C@@H](Cc1ccc(OCc2ccccc2)cc1)C(=O)O | 169 to 171 |
| Cc1ccc2c(c1)C(C(=O)Nc1c(C(C)C)cccc1C(C)C)c1ccccc1CO2 (stereo not drawn) | 166 to 167 |
| COc1cc(C=O)cc(Cl)c1OCCBr | 52 to 54 |
| CC(=O)OCc1nnc2n1-c1sc(Cl)cc1C(c1ccccc1Cl)=NC2 | 191 to 193 |
| c1ccc(-c2cc(-c3ccc4c(c3)OCO4)cc(OCCCCCc3nnn[nH]3)n2)cc1 | 150 |
| CC(C)n1cnc2c(Cl)nc(I)nc21 | 104 |
| CCCCOc1c(C(=O)O)n(CC(C)(C)C)c(=O)c2cc(F)ccc12 | 184 to 185 |
| CN(c1cccc2cc(C3=NCC(CC(=O)N4CCS(=O)CC4)S3)[nH]c12)S(=O)(=O)c1cccs1 (stereo not drawn) | 149 |
| COC(=O)c1cnc(C(=O)O)nc1 | 152 to 154 |
| CC(C)(CO)NS(=O)(=O)c1cncc(Br)c1 | 112 |
| CC(CN(C)C)N1c2ccccc2Sc2ccc(C(=O)NCC3CC3)cc21 (racemic) | 90 |
| O=c1c2c(Cl)cccc2nc2sc(Br)cn12 | 174 to 178 |

More lines, now with the values ahead:

| melting point [°C] | Compound |
| --- | --- |
| 159 to 162 | CCc1ccc2oc(C(=O)Nc3ccc(-c4ccc(S(=O)(=O)NC(C(=O)O)C(C)C)cc4)cc3)c(C)c2c1OC(C)C (stereo not drawn) |
| 126 to 130 | CC(C)CC[C@H](O)[C@H](CC1CCCCC1)NC(=O)[C@@H](N)Cc1c[nH]cn1 |
| 175 to 180 | CC=C(C)c1c(-c2ccc(S(C)(=O)=O)cc2)cnn(CC(F)(F)F)c1=O |
| 80 to 81 | c1ccc(COc2ccc(CCCn3ccnc3)cc2)cc1 |
| 57.5 | CC(C)(C)c1cc(SCCSCCC(=O)O)cc(C(C)(C)C)c1O |
| 149 to 151 | Cn1ncnc1COc1nc2c(cnn2-c2ccccc2)c2ccccc12 |
| 61 to 62 | CC(C)NNC(=O)OCc1ccccc1 |
| 280 to 283 | N#Cc1ccc(-c2ccc3cnc(Nc4ccc(N5CCOCC5)cc4)nn23)cn1 |
| 118 to 120 | Cc1c(OCc2ccc(F)cc2F)cc(C)n(C2CCCCC2)c1=O |
| 167 to 169 | CCOC(=O)CN1CCN(Cc2cnc(-c3cc4cccc(N(C)S(=O)(=O)c5cccs5)c4[nH]3)s2)CC1 |
| 130 to 133 | CC(C)COC(=O)N1CCN(c2nc3cccccc-3n2)CC1 |
| 220 to 223 | Cc1ccc2ncc3nc(C(F)(F)F)n(C)c3c2c1 |
| 209 to 212 | NC(=NO)c1ncn2c1N1CCN=C1c1ccccc1-2 |
| 210 to 211 | O=C(O)c1c(-c2ccc(F)c(Cl)c2)c2ccccc2n1Cc1cc2c(cc1Cl)OCO2 |
| 197 to 204 | Cc1cc(OCC2CO2)c2cc(C(=O)N(C)C)[nH]c2c1 (stereo not drawn) |
| 216 to 218 | CCOC(=O)c1c(N=[N+]=[N-])[nH]c(=O)c(I)c1Oc1cc(C)cc(C)c1 |

| melting point [°C] | Compound |
| --- | --- |
| 138 | CCCc1c(CSc2nnc(SCc3ccc(OC(C)C(=O)O)cc3)s2)ccc(C(C)=O)c1O (stereo not drawn) |
| 94 to 95 | COC(=O)c1ccc(-c2ccc(OC)c(C(C)(C)C)c2)s1 |
| 246 to 248 | COc1cc(C(=O)NS(=O)(=O)c2ccccc2)ccc1Cn1nc(OC)c2ccc(NC(=O)OC3CCCC3)cc21 |
| 51 to 53 | Cc1nccn1Cc1ccccc1 |
| 164 to 165 | CC(Oc1cccc(C(=O)NCCN(O)C(N)=O)c1)c1ccccc1 (stereo not drawn) |
| 242 to 245 | CC(C)CN1c2ccccc2C(C)(C)C12C=Nc1cc(-c3ccc(N4CCCC4)cc3)c3ccccc3c1O2 (stereo not drawn) |
| 165 to 168 | NCC1Cc2cccc(-c3cc(Cl)cc(Cl)c3)c2O1 (stereo not drawn) |
| 125 to 127 | OCc1c(F)cc(O)cc1Cl |
| 215 to 216 | Cc1c(C(=O)O)ccc2c3ccccc3n(Cc3ccccc3)c12 |
| 289 to 292 | CC(=O)N(c1ccc(N2CCN(C)CC2)cc1)c1ncc2c(n1)S/C(=C/c1cn(C(C)=O)c3ccccc13)C(=O)N2 |
| 61 to 62 | CCCc1cn(CCO)nc1OCc1ccc2ccccc2n1 |
| 163 to 165 | CC(=O)OC1CCCC(n2cnc3cc(Cl)c(Cl)cc32)C1OC(C)=O (stereo not drawn) |
| 273 to 274 | O=C(O)c1ccc(-c2nc(-c3c(F)c(F)c(F)c(F)c3F)cs2)cc1 |
| 87.5 to 88.5 | CCC(CC)(CC(=O)Nc1cccc(OCc2ccc3ccc(Cl)cc3n2)c1)C(=O)O |
| 242 to 243 | O=C(Nc1ccc(C(F)(F)F)cc1)N1CC(c2ccc(Cl)cc2)C(c2ccc(Cl)cc2)N1 (stereo not drawn) |
| 240 to 244 | COc1cc2c(cc1C(F)(F)F)N(C(=O)Nc1cccs1)CC2 |
